Measured values: patent US3982931A, “N,N-di-sec.butyl-benzamide herbicides” (priority 1967, dated 1976)

Assays:
[1] = tested on: amaranthus retroflexus L.; assay: herbicidal activity, soil treatment one day after sowing; assay type: in vivo
Description: (§1) The infesting species and the agrarian species have been indicated in Table 1 by letters, as follows:
A = amaranthus retroflexus L.
(§2) Method of evaluation of the results (of tests):
(§3) 1 slight differences with respect to the control;
(§4) 3 = considerable activity with damages that definitely impair the further development of most of the small plants; an activity degree already useful for practical purposes;
(§5) 4 = maximum of activity with lack of germination or total containment of the small plants in the emerging stage.
(§6) In the case of an intermediate activity between two classes of the scale, both values are recorded with the one which corresponds to the preeminent activity preceding.
(§7) TABLE 2 reports the activity data of other compounds that fall within the class which is the object of this invention.
(§8) TABLE 3 reports data on the herbicidal activity against infesting herbs, while TABLE 4 reports data concerning the activity on useful species of agricultural cultivations. These tables employ the criterion explained previously. […]

[2] = tested on: artemisia vulgaris L.; assay: as above; assay type: in vivo
Description: as §1
B = artemisia vulgaris L.
as §2, §3, §4, §5, §6, §7, §8

[3] = tested on: chenopodium album L.; assay: as above; assay type: in vivo
Description: as §1, §2, §3, §4, §5, §6, §7, §8

[4] = tested on: echinocloa crus-galli R.S.; assay: as above; assay type: in vivo
Description: as §1
D = echinocloa crus-galli R.S.
as §2, §3, §4, §5, §6, §7, §8

[5] = tested on: setaria glauca L.; assay: as above; assay type: in vivo
Description: as §1, §2, §3, §4, §5
In the case of an intermediate activity between two classes of the scale, both values are recorded with the one which corresponds to the preeminent activity preceding. […]
as §8

[6] = tested on: vicia sativa L.; assay: as above; assay type: in vivo
Description: as §1, §2, §3, §4, §5, §6, §7

[7] = tested on: triticum vulgare L. (wheat); assay: activity on agrarian species, soil treatment one day after sowing; assay type: in vivo; conditions: in vivo
Description: as §1
N = triticum vulgare L. (wheat)
as §2
(§9) 0 = no activity and no difference with respect to the control;
as §3, §4, §5, §6, §7
(§10) TABLE 3 reports data on the herbicidal activity against infesting herbs, while TABLE 4 reports data concerning the activity on useful species of agricultural cultivations. These tables employ the criterion explained previously. The product was spread on the soil one day after sowing, in quantities of 1, 3, 6, 8, 10, 12 and 14 kg/ha.

[8] = tested on: oryza sativa L. (rice); assay: as above; assay type: in vivo; conditions: in vivo
Description: as §1
P = oryza sativa L. (rice)
as §2, §9, §3, §4, §5, §6, §7, §10

[9] = tested on: avena sativa (oats); assay: as above; assay type: in vivo, Avena sativa L.; conditions: in vivo
Description: as §1, §2, §9, §3, §4, §5, §6, §7, §10

[10] = tested on: phaseolus vulgaris (bean); assay: as above; assay type: in vivo, Phaseolus vulgaris L.; conditions: in vivo
Description: as §1
I = phaseolus vulgaris (bean)
as §2, §9, §3, §4, §5, §6, §7, §10

[11] = tested on: pisum sativum L. (pea); assay: as above; assay type: in vivo; conditions: in vivo
Description: as §1
L = pisum sativum L. (pea)
as §2, §9, §3, §4, §5, §6, §7, §8

[12] = tested on: zea mais L. (corn); assay: as above; assay type: in vivo; conditions: in vivo
Description: as §1, §2, §9, §3, §4, §5, §6, §7, §10

SMILES | activity on P, 0-4 scale [8] | activity on G, 0-4 scale [9] | activity on I, 0-4 scale [10] | activity on L, 0-4 scale [11] | activity on O, 0-4 scale [12] | activity on A, 0-4 scale ([1]; 6 kg/ha) | activity on B, 0-4 scale ([2]; 6 kg/ha) | activity on C, 0-4 scale ([3]; 6 kg/ha) | activity on D, 0-4 scale ([4]; 6 kg/ha) | activity on E, 0-4 scale ([5]; 6 kg/ha) | activity on F, 0-4 scale ([6]; 6 kg/ha) | activity on B, 0-4 scale ([2]; 2 kg/ha) | activity on B, 0-4 scale ([2]; 4 kg/ha) | activity on C, 0-4 scale ([3]; 2 kg/ha) | activity on C, 0-4 scale ([3]; 4 kg/ha) | activity on D, 0-4 scale ([4]; 4 kg/ha) | activity on E, 0-4 scale ([5]; 2 kg/ha) | activity on E, 0-4 scale ([5]; 4 kg/ha) | activity on F, 0-4 scale ([6]; 2 kg/ha) | activity on F, 0-4 scale ([6]; 4 kg/ha) | also measured
NC(=O)c1ccccc1Cl [C, 2,chloro-benzamide, reference compound] | 0-1 | – | – | – | – | 2 | 1 | 2 | 0-1 | 0 | 2-3 | – | – | – | – | – | – | – | – | – | activity on N, 0-4 scale [7]: 0-1
CCC(C)N(C(=O)c1ccc(Cl)cc1Cl)C(C)CC (stereo not shown) [PA214, 2,4-dichloro-N,N-di-sec.butyl-benzamide] | 0 | 0 | 0 | 0 | 0 | 3-4 | – | – | 4 | 4 | 0 | 1 | 2 | 1 | 1-2 | 3-4 | 3 | 3-4 | 0 | 0 | activity on A, 0-4 scale ([1]; 2 kg/ha): 1; activity on A, 0-4 scale ([1]; 4 kg/ha): 2-3
CCC(C)N(C(=O)c1ccccc1Cl)C(C)CC (stereo not shown) [PA215 2,chloro-N,N-disec.butyl-benzamide, 2-chloro-N,N-di-sec.butyl-benzamide] | 0 | 0 | 0 | 0 | 0 | 2 | 1 | 0-1 | 2-3 | 3 | 0 | – | – | – | – | – | – | – | – | – | –
CCC(C)N(C(=O)c1cccc(Cl)c1)C(C)CC (stereo not shown) [PA215, 3-chloro-N,N-di-sec.butyl-benzamide] | 0 | 0 | 0 | – | 0 | 1-2 | 1-2 | 1-2 | 3 | 3 | 1-2 | – | – | – | – | – | – | – | – | – | –

Further lines, with some results ahead:

activity on P, 0-4 scale [8] | activity on G, 0-4 scale [9] | activity on I, 0-4 scale [10] | activity on L, 0-4 scale [11] | activity on O, 0-4 scale [12] | SMILES | activity on A, 0-4 scale ([1]; 6 kg/ha) | activity on B, 0-4 scale ([2]; 6 kg/ha) | activity on C, 0-4 scale ([3]; 6 kg/ha) | activity on D, 0-4 scale ([4]; 6 kg/ha) | activity on E, 0-4 scale ([5]; 6 kg/ha) | activity on F, 0-4 scale ([6]; 6 kg/ha) | activity on B, 0-4 scale ([2]; 2 kg/ha) | activity on B, 0-4 scale ([2]; 4 kg/ha) | activity on C, 0-4 scale ([3]; 2 kg/ha) | activity on C, 0-4 scale ([3]; 4 kg/ha) | activity on D, 0-4 scale ([4]; 4 kg/ha) | activity on E, 0-4 scale ([5]; 2 kg/ha) | activity on E, 0-4 scale ([5]; 4 kg/ha) | activity on F, 0-4 scale ([6]; 2 kg/ha) | activity on F, 0-4 scale ([6]; 4 kg/ha) | also measured
0 | 0 | 0 | 0 | 0 | CCC(C)N(C(=O)c1cccc(C)c1)C(C)CC (stereo not shown) [PA226, 3-methyl-N,N-di-sec.butyl-benzamide] | 2 | 1-2 | 1-2 | 4 | 4 | 0 | 1 | 1-2 | 0-1 | 1 | 3 | 2 | 3-4 | 0 | 0 | activity on A, 0-4 scale ([1]; 4 kg/ha): 1-2; activity on D, 0-4 scale ([4]; 2 kg/ha): 2-3
– | 0 | 0 | 0 | 0 | CCC(C)N(C(=O)c1ccc(C)c(C)c1)C(C)CC (stereo not shown) [PA233, 3,4-dimethyl-N,N-di-sec.butyl-benzamide] | 2-3 | 2 | 2 | 4 | 4 | 0 | – | – | – | – | 3 | 3 | 3-4 | – | – | activity on D, 0-4 scale ([4]; 2 kg/ha): 2-3
3 | – | – | 1 | – | CCCN(CCC)C(=O)c1cc(Cl)cc(Cl)c1Cl [PA303, 2,3,5-trichloro-N,N-di-n. propyl-benzamide, reference compound] | 3 | 1 | – | 4 | 4 | 0-1 | 1 | 1 | 1 | 1-2 | 3-4 | 3 | – | 0 | 0-1 | activity on A, 0-4 scale ([1]; 1 kg/ha): 1; activity on A, 0-4 scale ([1]; 4 kg/ha): 2-3; activity on B, 0-4 scale ([2]; 1 kg/ha): 1; activity on C, 0-4 scale ([3]; 1 kg/ha): 1; activity on D, 0-4 scale ([4]; 1 kg/ha): 1-2; activity on E, 0-4 scale ([5]; 1 kg/ha): 1-2; activity on F, 0-4 scale ([6]; 1 kg/ha): 0
0 | 0 | 0 | 0 | 0 | CCC(C)N(C(=O)c1cccc(Cl)c1Cl)C(C)CC (stereo not shown) [PA336, 2,3-dichloro-N,N-di-sec.butyl-benzamide] | 4 | 3 | – | 4 | 4 | 0 | 1 | 2 | 2 | 3 | 4 | – | 4 | 0 | 0 | activity on A, 0-4 scale ([1]; 2 kg/ha): 2-3; activity on D, 0-4 scale ([4]; 2 kg/ha): 3-4
